Data: PubChem BioAssay (NCI)
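Results reflect a 48-hour exposure of cells in 96-well plates to compound at five concentrations. At the GI50, growth is halved. TGI: concentration producing complete growth inhibition.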

Tests used:
Experiment in all cases: NCI anticancer screen, dose series, 48 h
SN12C renal = test system: SN12C renal
EKVX NSCLC = test system: EKVX NSCLC
K-562 leukemia = test system: K-562 leukemia
BT-549 breast = test system: BT-549 breast
DU-145 prostate = test system: DU-145 prostate
HOP-62 NSCLC = test system: HOP-62 NSCLC
SR leukemia = test system: SR leukemia
UACC-62 melanoma = test system: UACC-62 melanoma
PC-3 prostate = test system: PC-3 prostate
A549 NSCLC = test system: A549 NSCLC
ACHN renal = test system: ACHN renal
MDA-MB-231 breast = test system: MDA-MB-231 breast
T-47D breast = test system: T-47D breast
IGROV1 ovarian = test system: IGROV1 ovarian
MOLT-4 leukemia = test system: MOLT-4 leukemia
UACC-257 melanoma = test system: UACC-257 melanoma
TK-10 renal = test system: TK-10 renal
HS 578T breast = test system: HS 578T breast
UO-31 renal = test system: UO-31 renal
SK-OV-3 ovarian = test system: SK-OV-3 ovarian
NCI/ADR-RES ovarian = test system: NCI/ADR-RES ovarian
786-0 renal = test system: 786-0 renal
NCI-H226 lung = test system: NCI-H226 lung
SF-295 CNS = test system: SF-295 CNS
HL-60(TB) leukemia = test system: HL-60(TB) leukemia
SNB-75 CNS = test system: SNB-75 CNS
RPMI-8226 leukemia = test system: RPMI-8226 leukemia
SW-620 colon = test system: SW-620 colon
SF-268 CNS = test system: SF-268 CNS
HOP-92 NSCLC = test system: HOP-92 NSCLC
SK-MEL-5 melanoma = test system: SK-MEL-5 melanoma
COLO 205 colon = test system: COLO 205 colon
SNB-19 CNS = test system: SNB-19 CNS
U251 CNS = test system: U251 CNS
NCI-H522 lung = test system: NCI-H522 lung
NCI-H460 lung = test system: NCI-H460 lung
OVCAR-5 ovarian = test system: OVCAR-5 ovarian
MALME-3M melanoma = test system: MALME-3M melanoma
CCRF-CEM leukemia = test system: CCRF-CEM leukemia
MCF7 breast = test system: MCF7 breast
MDA-MB-435 = test system: MDA-MB-435
CAKI-1 renal = test system: CAKI-1 renal
SK-MEL-28 melanoma = test system: SK-MEL-28 melanoma
LOX IMVI melanoma = test system: LOX IMVI melanoma
OVCAR-4 ovarian = test system: OVCAR-4 ovarian
KM12 colon = test system: KM12 colon
M14 melanoma = test system: M14 melanoma
HT29 colon = test system: HT29 colon
SK-MEL-2 melanoma = test system: SK-MEL-2 melanoma
OVCAR-8 ovarian = test system: OVCAR-8 ovarian
SF-539 CNS = test system: SF-539 CNS
OVCAR-3 ovarian = test system: OVCAR-3 ovarian
HCT-116 colon = test system: HCT-116 colon
HCT-15 colon = test system: HCT-15 colon
HCC-2998 colon = test system: HCC-2998 colon
A498 renal = test system: A498 renal
RXF 393 renal = test system: RXF 393 renal
NCI-H23 lung = test system: NCI-H23 lung

**Q.** For `O=C(Nc1ccccc1C(F)(F)F)c1cccc(NC2=C(Cl)C(=O)N(Cc3ccccc3)C2=O)c1`, which GI50 (SN12C renal) is on record?
**A.** 7.49 µM

**Q.** And the TGI (SN12C renal)?
**A.** > 57.4 µM

**Q.** And the GI50 (EKVX NSCLC)?
**A.** 13.2 µM

**Q.** And the TGI (EKVX NSCLC)?
**A.** 52.6 µM

**Q.** And the GI50 (K-562 leukemia)?
**A.** 3.55 µM

**Q.** And the TGI (K-562 leukemia)?
**A.** > 100 µM

**Q.** What about the GI50 (BT-549 breast) of the same compound?
**A.** 8.25 µM

**Q.** What about the TGI (BT-549 breast) of the same compound?
**A.** 45.1 µM

**Q.** And the GI50 (DU-145 prostate)?
**A.** 8.19 µM

**Q.** What about the TGI (DU-145 prostate) of the same compound?
**A.** 44 µM

**Q.** And the GI50 (HOP-62 NSCLC)?
**A.** 19.1 µM

**Q.** What about the TGI (HOP-62 NSCLC) of the same compound?
**A.** > 52.2 µM

**Q.** What about the GI50 (SR leukemia) of the same compound?
**A.** 447 nM

**Q.** What about the TGI (SR leukemia) of the same compound?
**A.** 4.35 µM

**Q.** And the GI50 (UACC-62 melanoma)?
**A.** 9.46 µM

**Q.** And the TGI (UACC-62 melanoma)?
**A.** 52.7 µM

**Q.** What about the GI50 (PC-3 prostate) of the same compound?
**A.** 8.78 µM

**Q.** And the TGI (PC-3 prostate)?
**A.** > 53 µM

**Q.** And the GI50 (A549 NSCLC)?
**A.** 28.2 µM

**Q.** What about the TGI (A549 NSCLC) of the same compound?
**A.** > 77.8 µM

**Q.** And the GI50 (ACHN renal)?
**A.** 5.39 µM

**Q.** What about the TGI (ACHN renal) of the same compound?
**A.** 26.9 µM

**Q.** And the GI50 (MDA-MB-231 breast)?
**A.** 3.86 µM

**Q.** What about the TGI (MDA-MB-231 breast) of the same compound?
**A.** 21.4 µM

**Q.** What about the GI50 (T-47D breast) of the same compound?
**A.** 62.7 µM

**Q.** What about the TGI (T-47D breast) of the same compound?
**A.** > 100 µM

**Q.** What about the GI50 (IGROV1 ovarian) of the same compound?
**A.** 985 nM

**Q.** And the TGI (IGROV1 ovarian)?
**A.** 18.8 µM

**Q.** What about the GI50 (MOLT-4 leukemia) of the same compound?
**A.** 4.29 µM

**Q.** What about the TGI (MOLT-4 leukemia) of the same compound?
**A.** 30.8 µM

**Q.** What about the GI50 (UACC-257 melanoma) of the same compound?
**A.** 11.2 µM

**Q.** What about the TGI (UACC-257 melanoma) of the same compound?
**A.** 70.1 µM

**Q.** What about the GI50 (TK-10 renal) of the same compound?
**A.** 6.85 µM

**Q.** What about the TGI (TK-10 renal) of the same compound?
**A.** 37.2 µM

**Q.** What about the GI50 (HS 578T breast) of the same compound?
**A.** 8.27 µM

**Q.** And the TGI (HS 578T breast)?
**A.** 28.5 µM

**Q.** And the GI50 (UO-31 renal)?
**A.** 19.8 µM

**Q.** And the TGI (UO-31 renal)?
**A.** 97.8 µM

**Q.** What about the GI50 (SK-OV-3 ovarian) of the same compound?
**A.** 38.9 µM

**Q.** What about the TGI (SK-OV-3 ovarian) of the same compound?
**A.** > 100 µM

**Q.** And the GI50 (NCI/ADR-RES ovarian)?
**A.** 9.14 µM

**Q.** What about the TGI (NCI/ADR-RES ovarian) of the same compound?
**A.** 40.7 µM

**Q.** What about the GI50 (786-0 renal) of the same compound?
**A.** 12.4 µM

**Q.** What about the TGI (786-0 renal) of the same compound?
**A.** > 40.1 µM

**Q.** And the GI50 (NCI-H226 lung)?
**A.** 15.4 µM

**Q.** And the TGI (NCI-H226 lung)?
**A.** 52.9 µM

**Q.** And the GI50 (SF-295 CNS)?
**A.** > 19.9 µM

**Q.** What about the TGI (SF-295 CNS) of the same compound?
**A.** > 45.5 µM

**Q.** What about the GI50 (HL-60(TB) leukemia) of the same compound?
**A.** 31.8 µM

**Q.** What about the TGI (HL-60(TB) leukemia) of the same compound?
**A.** > 100 µM

**Q.** And the GI50 (SNB-75 CNS)?
**A.** 30.7 µM

**Q.** And the TGI (SNB-75 CNS)?
**A.** > 57.6 µM

**Q.** And the GI50 (RPMI-8226 leukemia)?
**A.** 13.1 µM

**Q.** What about the TGI (RPMI-8226 leukemia) of the same compound?
**A.** > 100 µM

**Q.** What about the GI50 (SW-620 colon) of the same compound?
**A.** 22 µM

**Q.** And the TGI (SW-620 colon)?
**A.** > 100 µM

**Q.** And the GI50 (SF-268 CNS)?
**A.** 9.32 µM

**Q.** And the TGI (SF-268 CNS)?
**A.** > 25.3 µM

**Q.** What about the GI50 (HOP-92 NSCLC) of the same compound?
**A.** 26.3 µM

**Q.** And the TGI (HOP-92 NSCLC)?
**A.** > 100 µM

**Q.** What about the TGI (SK-MEL-5 melanoma) of the same compound?
**A.** 3.04 µM

**Q.** And the GI50 (COLO 205 colon)?
**A.** 39.4 µM

**Q.** What about the TGI (COLO 205 colon) of the same compound?
**A.** > 100 µM

**Q.** What about the GI50 (SNB-19 CNS) of the same compound?
**A.** 34 µM

**Q.** And the TGI (SNB-19 CNS)?
**A.** > 100 µM

**Q.** What about the GI50 (U251 CNS) of the same compound?
**A.** 6.68 µM

**Q.** What about the TGI (U251 CNS) of the same compound?
**A.** 41.7 µM

**Q.** What about the TGI (NCI-H522 lung) of the same compound?
**A.** 67.2 nM

**Q.** What about the GI50 (NCI-H460 lung) of the same compound?
**A.** 3.52 µM

**Q.** What about the TGI (NCI-H460 lung) of the same compound?
**A.** 15.9 µM

**Q.** And the GI50 (OVCAR-5 ovarian)?
**A.** 20 µM

**Q.** And the TGI (OVCAR-5 ovarian)?
**A.** > 100 µM

**Q.** And the GI50 (MALME-3M melanoma)?
**A.** 42.6 µM

**Q.** And the TGI (MALME-3M melanoma)?
**A.** > 100 µM

**Q.** What about the GI50 (CCRF-CEM leukemia) of the same compound?
**A.** 10.4 µM

**Q.** What about the TGI (CCRF-CEM leukemia) of the same compound?
**A.** 31.7 µM

**Q.** And the GI50 (MCF7 breast)?
**A.** 2680 nM

**Q.** And the TGI (MCF7 breast)?
**A.** 27.1 µM

**Q.** And the GI50 (MDA-MB-435)?
**A.** 4.2 µM

**Q.** What about the TGI (MDA-MB-435) of the same compound?
**A.** > 33 µM

**Q.** What about the GI50 (CAKI-1 renal) of the same compound?
**A.** 21.1 µM

**Q.** What about the TGI (CAKI-1 renal) of the same compound?
**A.** > 67.2 µM

**Q.** What about the GI50 (SK-MEL-28 melanoma) of the same compound?
**A.** > 90.2 µM

**Q.** What about the TGI (SK-MEL-28 melanoma) of the same compound?
**A.** > 100 µM

**Q.** What about the GI50 (LOX IMVI melanoma) of the same compound?
**A.** 5.87 µM

**Q.** And the TGI (LOX IMVI melanoma)?
**A.** 36.9 µM

**Q.** And the GI50 (OVCAR-4 ovarian)?
**A.** 45.1 µM

**Q.** What about the TGI (OVCAR-4 ovarian) of the same compound?
**A.** > 100 µM

**Q.** What about the GI50 (KM12 colon) of the same compound?
**A.** 19.2 µM

**Q.** And the TGI (KM12 colon)?
**A.** > 85.2 µM

**Q.** And the GI50 (M14 melanoma)?
**A.** 23 µM

**Q.** And the TGI (M14 melanoma)?
**A.** > 76.8 µM

**Q.** What about the GI50 (HT29 colon) of the same compound?
**A.** 65.6 µM

**Q.** And the TGI (HT29 colon)?
**A.** > 100 µM

**Q.** And the GI50 (SK-MEL-2 melanoma)?
**A.** 14.9 µM

**Q.** What about the TGI (SK-MEL-2 melanoma) of the same compound?
**A.** 79 µM

**Q.** What about the GI50 (OVCAR-8 ovarian) of the same compound?
**A.** 42.3 µM

**Q.** And the TGI (OVCAR-8 ovarian)?
**A.** > 72.1 µM

**Q.** And the GI50 (SF-539 CNS)?
**A.** 12.1 µM

**Q.** What about the TGI (SF-539 CNS) of the same compound?
**A.** 34.8 µM

**Q.** And the GI50 (OVCAR-3 ovarian)?
**A.** 6.62 µM

**Q.** What about the TGI (OVCAR-3 ovarian) of the same compound?
**A.** > 43.8 µM

**Q.** What about the GI50 (HCT-116 colon) of the same compound?
**A.** 14.9 µM

**Q.** What about the TGI (HCT-116 colon) of the same compound?
**A.** > 55.1 µM

**Q.** And the GI50 (HCT-15 colon)?
**A.** 3.8 µM

**Q.** And the TGI (HCT-15 colon)?
**A.** > 24.5 µM

**Q.** What about the GI50 (HCC-2998 colon) of the same compound?
**A.** 21.5 µM

**Q.** What about the TGI (HCC-2998 colon) of the same compound?
**A.** 50.8 µM

**Q.** And the GI50 (A498 renal)?
**A.** 11.3 µM

**Q.** And the TGI (A498 renal)?
**A.** 37 µM

**Q.** What about the GI50 (RXF 393 renal) of the same compound?
**A.** 3.13 µM

**Q.** And the TGI (RXF 393 renal)?
**A.** 12.3 µM

**Q.** What about the GI50 (NCI-H23 lung) of the same compound?
**A.** 19.2 µM

**Q.** What about the TGI (NCI-H23 lung) of the same compound?
**A.** 62.5 µM
